What was measured:
[1] = biological target: GDP-bound KRAS wild-type protein (Homo sapiens, UniProt P01116); assay: Binding to KRAS by surface plasmon resonance (SPR), dissociation constant KD; details: Single Cycle Kinetics
How it was run: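 Biotinylated GDP-bound RAS was captured at about 100–300 RU. Running buffer: HBS pH 7.4, 10 mM MgCl2, 10 µM GDP, 1 mM DTT, 0.01% Tween 20, 4% DMSO.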

[2] = biological target: GDP-bound NRAS wild-type protein (Homo sapiens, UniProt P01111); assay: Binding to NRAS by surface plasmon resonance (SPR), KD and KD ratio to KRAS
GDP-bound NRAS wild-type protein, sequence (P01111 whole entry): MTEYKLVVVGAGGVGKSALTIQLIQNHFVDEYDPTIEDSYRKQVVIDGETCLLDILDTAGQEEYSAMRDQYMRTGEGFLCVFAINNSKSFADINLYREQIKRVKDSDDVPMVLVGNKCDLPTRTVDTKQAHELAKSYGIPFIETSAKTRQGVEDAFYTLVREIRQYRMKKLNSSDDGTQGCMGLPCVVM
How it was run: (§1)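 SPR, 30°C: Avi-biotin RAS·GDP captured via Biotin CAPture (~100–300 RU); running buffer HBS pH 7.4, 1 mM DTT, 10 mM MgCl2, 0.01% Tween 20, 10 µM GDP, 4% DMSO. Single-cycle kinetics, 100 µL/min, 75 s injections; 1:1 model → KD.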

HRAS wild-type protein = HRAS wild-type protein (Homo sapiens, UniProt P01112); assay: Binding to HRAS by surface plasmon resonance (SPR), KD and KD ratio to KRAS
HRAS wild-type protein, sequence (P01112 whole entry): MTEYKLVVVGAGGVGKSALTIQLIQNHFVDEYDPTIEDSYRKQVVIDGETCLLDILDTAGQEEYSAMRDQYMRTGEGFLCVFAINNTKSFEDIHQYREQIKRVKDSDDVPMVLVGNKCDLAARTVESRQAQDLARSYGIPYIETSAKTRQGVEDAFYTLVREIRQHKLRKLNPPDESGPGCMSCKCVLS
How it was run: as §1

[3] = tested on: human lung cancer strain NCI-H441; format: cell-based
How it was run: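 Proliferation was scored by […] measured after the reagent was added to cultures kept at 37°C in 5% carbon dioxide.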

[4] = tested on: human gastric cancer strain SNU-1; format: cell-based
How it was run: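 SNU-1 gastric cancer cells, 250 cells/well in RPMI-1640 with 10% FBS, glucose, HEPES and sodium pyruvate, plated onto serially diluted compound in DMSO.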

[5] = tested on: human pancreatic cancer strain KP4; format: cell-based
How it was run: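 KP4 pancreatic cancer cells seeded at 500 cells/well in DMEM/Ham's F-12 with 10% FBS onto serially diluted compound. Viability read by CellTiter-Glo luminescence.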

[6] = tested on: human colorectal cancer strain GP2d; format: cell-based
How it was run: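 Cells seeded at 500 cells/well in DMEM with 10% FBS onto serially diluted compound in DMSO, then cultured 7 days at 37°C, 5% CO2. Viability read by CellTiter-Glo luminescence.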

[7] = tested on: human gastric cancer strain GSU; format: cell-based
How it was run: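 Cells seeded at 200 per well in RPMI-1640 with 10% FBS onto serially diluted compound (DMSO) in U-bottom plates. Viability read by CellTiter-Glo luminescence.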

[8] = tested on: human ovarian cancer strain OV7; format: cell-based
How it was run: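 OV7 cells, 250 per well, in DMEM/Ham's F-12 with 5% FBS, 0.5 µg/mL hydrocortisone and 10 µg/mL insulin, grown 7 days at 37°C with serially diluted compound. Viability by CellTiter-Glo luminescence.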

[9] = tested on: human bladder cancer strain UM-UC-3; format: cell-based
How it was run: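 UM-UC-3 human bladder cancer cells were seeded at 250 cells/well onto serially diluted compound in MEM with 10% FBS. Viability was read as CellTiter-Glo luminescence.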

[10] = ratio of KD for GDP-bound NRAS wild-type protein to KD for KRAS
[11] = ratio of KD for HRAS wild-type protein to KD for KRAS

GDP-bound KRAS wild-type protein, sequence (P01116 1-188 isoform P01116-2): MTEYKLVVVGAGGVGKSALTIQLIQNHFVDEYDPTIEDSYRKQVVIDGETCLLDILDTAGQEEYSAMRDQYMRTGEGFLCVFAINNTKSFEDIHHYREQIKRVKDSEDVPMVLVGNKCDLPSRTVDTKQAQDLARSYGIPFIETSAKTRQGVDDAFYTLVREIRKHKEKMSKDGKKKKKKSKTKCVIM

SMILES	Kd ([1]; 1:1 binding model) [nM]	NRAS /KRAS ([2]; ratio of the KD value with respect to GDP-bound NRAS wild-type protein to the KD value with respect to KRAS)	HRAS /KRAS (HRAS wild-type protein; ratio of the KD value with respect to HRAS wild-type protein to the KD value with respect to KRAS)	IC50 [3] [nM]	IC50 [4] [nM]	IC50 [5] [nM]	IC50 [6] [nM]	IC50 [7] [nM]	IC50 [8] [nM]	IC50 [9] [nM]	Kd [1] [nM]	NRAS /KRAS [2, 10]	HRAS /KRAS (HRAS wild-type protein; [11])
CCC[C@H]1C(=O)N[C@@H]([C@@H](C)CC)C(=O)N(C)CC(=O)N(C)[C@H]2C/C=C\CCN(C2=O)[C@@H](Cc2ccc(C(F)(F)F)cc2)C(=O)N(C)CC(=O)N[C@@H](CCc2ccc(Cl)c(Cl)c2)C(=O)N2C[C@H](OCC)C[C@H]2C(=O)NC2(CC(C)(C)C2)C(=O)N(C)[C@@H](C(CC)CC)C(=O)N(C)[C@H](C(=O)N(C)C)CC(=O)N1C [PP2175, (2S,8S,12R,14S,20S,23S,27S,30S,36S,38Z)-8-[2-(3,4-dichlorophenyl)ethyl]-12-ethoxy-20-(1-ethylpropyl)-N,N,3',3',4,19,22,26,32,35-decamethyl-30-[(1S)-1-methylpropyl]-3,6,9,15,18,21,25,28,31,34,42-undecaoxo-27-propyl-2-[[4-(trifluoromethyl)phenyl]methyl]spiro[1,4,7,10,16,19,22,26,29,32,35-undecazatricyclo[34.5.1.0^10,14]dotetracont-38-ene-17,1'-cyclobutane]-23-carboxamide]	0.45	AA (a compound having 20 or more is denoted as AA)	A (a compound having 10 or more and less than 20 is denoted as A)	25.7	20	102	24.8	0.5	80.2	19.7	–	–	–
CCC[C@H]1C(=O)N[C@@H]([C@@H](C)CC)C(=O)N(C)CC(=O)N(C)[C@H]2C/C=C\CCN(C2=O)[C@@H](Cc2ccc(C(F)(F)F)cc2)C(=O)N(C)CC(=O)N[C@@H](CCc2ccc(C(F)(F)F)c(Cl)c2)C(=O)N2CC3(CC3)C[C@H]2C(=O)NC2(CCC2)C(=O)N(C)[C@@H](C(CC)CC)C(=O)N(C)[C@H](C(=O)N(C)C)CC(=O)N1C [PP3414]	–	–	–	11.9	19.7	29.3	13	4.3	50.9	29	0.37	AA (a compound having 20 or more is denoted as AA)	A (a compound having 10 or more and less than 20 is denoted as A)
CCC[C@H]1C(=O)N[C@@H]([C@@H](C)CC)C(=O)N2CCC[C@H]2C(=O)N(C)[C@H]2C/C=C\CCN(C2=O)[C@@H](Cc2ccc(C(F)(F)F)cc2)C(=O)N(C)CC(=O)N[C@@H](CCc2ccc(C(F)(F)F)c(OC)c2)C(=O)N2C[C@H](OCC)C[C@H]2C(=O)OC2(CCC2)C(=O)N(C)[C@@H](C2CCCC2)C(=O)N(C)[C@H](C(=O)N(C)C)CC(=O)N1C [PP3368, (1S,4S,10S,13S,17S,20S,26S,28R,32S,38S,42Z)-20-cyclopentyl-28-ethoxy-32-[2-[3-methoxy-4-(trifluoromethyl)phenyl]ethyl]-N,N,2,14,18,21,36-heptamethyl-10-[(1S)-1-methylpropyl]-3,9,12,15,19,22,25,31,34,37,45-undecaoxo-13-propyl-38-[[4-(trifluoromethyl)phenyl]methyl]spiro[24-oxa-2,8,11,14,18,21,30,33,36,39-decazatetracyclo[37.5.1.0^4,8.0^26,30]pentatetracont-42-ene-23,1'-cyclobutane]-17-carboxamide]	–	–	–	11.9	20.4	18.6	22.6	2.8	42.5	13.9	0.57	A (a compound having 10 or more and less than 20 is denoted as A)	A (a compound having 10 or more and less than 20 is denoted as A)
CCO[C@@H]1C[C@H]2C(=O)NC3(CCCC3)C(=O)N(C)[C@@H](C3CCCC3)C(=O)N(C)[C@H](C(=O)N(C)C)CC(=O)N(C)[C@@H]([C@@H](C)OC)C(=O)N[C@@H]([C@@H](C)CC)C(=O)N(C)CC(=O)N(C)[C@H]3C/C=C\CCN(C3=O)[C@@H](Cc3ccc(C(F)(F)F)cc3)C(=O)N(C)CC(=O)N[C@@H](CCc3cc(F)c(C(F)(F)F)c(F)c3)C(=O)N2C1 [PP3475, (2S,8S,12R,14S,20S,23S,27S,30S,36S,38Z)-20-cyclopentyl-8-[2-[3,5-difluoro-4-(trifluoromethyl)phenyl]ethyl]-12-ethoxy-27-[(1R)-1-methoxyethyl]-N,N,4,19,22,26,32,35-octamethyl-30-[(1S)-1-methylpropyl]-3,6,9,15,18,21,25,28,31,34,42-undecaoxo-2-[[4-(trifluoromethyl)phenyl]methyl]spiro[1,4,7,10,16,19,22,26,29,32,35-undecazatricyclo[34.5.1.0^10,14]dotetracont-38-ene-17,1'-cyclopentane]-23-carboxamide]	–	–	–	7.2	2.5	13.1	3.5	0.8	13.2	3.9	0.076	A (a compound having 10 or more and less than 20 is denoted as A)	A (a compound having 10 or more and less than 20 is denoted as A)
CCO[C@@H]1C[C@H]2C(=O)NC3(CCCC3)C(=O)N(C)[C@@H](C3CCCC3)C(=O)N(C)[C@H](C(=O)N(C)C)CC(=O)N(C)[C@@H](CC(C)C)C(=O)N[C@@H]([C@@H](C)CC)C(=O)N(C)CC(=O)N(C)[C@H]3C/C=C\CCN(C3=O)[C@@H](Cc3ccc(C(F)(F)F)cc3)C(=O)N(C)CC(=O)N[C@@H](CCc3cc(F)c(C(F)(F)F)c(F)c3)C(=O)N2C1 [PP1105, (2S,8S,12R,14S,20S,23S,27S,30S,36S,38Z)-20-cyclopentyl-8-[2-[3,5-difluoro-4-(trifluoromethyl)phenyl]ethyl]-12-ethoxy-27-isobutyl-N,N,4,19,22,26,32,35-octamethyl-30-[(1S)-1-methylpropyl]-3,6,9,15,18,21,25,28,31,34,42-undecaoxo-2-[[4-(trifluoromethyl)phenyl]methyl]spiro[1,4,7,10,16,19,22,26,29,32,35-undecazatricyclo[34.5.1.0^10,14]dotetracont-38-ene-17,1'-cyclopentane]-23-carboxamide]	–	–	–	12	2.7	3.1	2.9	0.3	8.1	2.1	0.07	A (a compound having 10 or more and less than 20 is denoted as A)	A (a compound having 10 or more and less than 20 is denoted as A)
C#CC[C@H]1C(=O)N[C@@H]([C@@H](C)CC)C(=O)N(C)CC(=O)N(C)[C@H]2C/C=C\CCN(C2=O)[C@@H](Cc2ccc(C)cc2)C(=O)N(C)CC(=O)N[C@@H](CCc2cc(F)c(C(F)(F)F)c(F)c2)C(=O)N2C[C@H](OCC)C[C@H]2C(=O)N(C)C2(CCC2)C(=O)N(C)[C@@H](C2CCCC2)C(=O)N(C)[C@H](C(=O)N(C)C)CC(=O)N1C [PP3238, (2S,8S,12R,14S,20S,23S,27S,30S,36S,38Z)-20-cyclopentyl-8-[2-[3,5-difluoro-4-(trifluoromethyl)phenyl]ethyl]-12-ethoxy-N,N,4,16,19,22,26,32,35-nonamethyl-30-[(1S)-1-methylpropyl]-3,6,9,15,18,21,25,28,31,34,42-undecaoxo-27-prop-2-ynyl-2-(p-tolylmethyl)spiro[1,4,7,10,16,19,22,26,29,32,35-undecazatricyclo[34.5.1.0^10,14]dotetracont-38-ene-17,1'-cyclobutane]-23-carboxamide]	–	–	–	1.9	2.1	4.2	1.5	0.6	2.1	1.5	0.022	A (a compound having 10 or more and less than 20 is denoted as A)	A (a compound having 10 or more and less than 20 is denoted as A)

From patent EP4603105A1, “PHARMACEUTICAL COMPOSITION CONTAINING CYCLIC COMPOUND HAVING SELECTIVE KRAS INHIBITORY EFFECT AGAINST HRAS AND NRAS” (CHUGAI SEIYAKU KABUSHIKI KAISHA, priority 2022, dated 2024)
